Structures can show the parent of a compound that is named as a salt.
System: mice
Experiment: Neuropharmacological Assay (SmartCube): automated behavioral signature of compound-treated mice compared with a database of reference drug classes
Format: in vivo
Conditions: for minimal effective dose: Mus musculus, ip, read-out: MED; for AD / AG / AN / AP / AX / CE / HL / MS / PS / SH / UK: SmartCube class probability, 3.0 mg/kg i.p., 15 min before test
Summary of the method: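 Probabilities of matching each neuropharmacological class (e.g. anxiolytic, antidepressant) come from algorithmic analysis of digitally recorded behaviour, reported for 3.0 mg/kg. Compounds were given intraperitoneally in a Pharmasolve/PEG/propylene glycol vehicle 15 min pre-test. Minimal effective dose is the lowest dose reaching 45% or more total activity.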

[1] = minimal effective dose: dose having 45% or more total activity in SmartCube, i.p., if only one dose tested, that dose is shown

With `CNC1CCc2scc(C3CCC3)c2C1` (centres unmarked) [Compound 206, 3-cyclobutyl-N-methyl-4,5,6,7-tetrahydrobenzothiophen-5-amine hydrochloride] the minimal effective dose [1] was 3 mg/kg, the AD was “ND (^ <4%)” and the AG was “ND (^ <4%)”. The AN was “ND (^ <4%)”, the AP was “ND (^ <4%)” and the AX was “ND (^ <4%)”. For the same compound, the CE was “ND (^ <4%)”, the HL was “ND (^ <4%)” and the MS was “ND (^ <4%)”. The PS was “ND (^ <4%)”, the SH was “ND (^ <4%)” and the UK was “++ (≥24%)”.

With `CCc1csc2c1CC(NC)CC2` (centres unmarked) [Compound 207, 3-ethyl-N-methyl-4,5,6,7-tetrahydrobenzothiophen-5-amine hydrochloride] the minimal effective dose [1] was > 3 mg/kg, the AD was “ND (^ <4%)” and the AG was “ND (^ <4%)”. The AN was “ND (^ <4%)”, the AP was “ND (^ <4%)” and the AX was “ND (^ <4%)”. The CE was “ND (^ <4%)”, the HL was “ND (^ <4%)” and the MS was “ND (^ <4%)”. For the same compound, the PS was “ND (^ <4%)”, the SH was “ND (^ <4%)” and the UK was “+ (≥4%)”.

With `CCc1csc2c1CC(N)CC2` (centres unmarked) [Compound 208, 3-ethyl-4,5,6,7-tetrahydrobenzothiophen-5-amine hydrochloride] the minimal effective dose [1] was > 3 mg/kg, the AD was “ND (^ <4%)” and the AG was “ND (^ <4%)”. For the same compound, the AN was “ND (^ <4%)”, the AP was “ND (^ <4%)” and the AX was “ND (^ <4%)”. The CE was “ND (^ <4%)”, the HL was “ND (^ <4%)” and the MS was “ND (^ <4%)”. For the same compound, the PS was “ND (^ <4%)”, the SH was “ND (^ <4%)” and the UK was “+ (≥4%)”.

With `NC1CCc2c(F)csc2C1` (centres unmarked) [Compound 209, 3-fluoro-4,5,6,7-tetrahydrobenzothiophen-6-amine hydrochloride] the minimal effective dose [1] was < 3 mg/kg, the AD was “++ (≥24%)” and the AG was “ND (^ <4%)”. For the same compound, the AN was “ND (^ <4%)”, the AP was “+ (≥4%)” and the AX was “+++ (≥49%)”. For the same compound, the CE was “+ (≥4%)”, the HL was “ND (^ <4%)” and the MS was “ND (^ <4%)”. For the same compound, the PS was “ND (^ <4%)”, the SH was “ND (^ <4%)” and the UK was “ND (^ <4%)”.

In the case of `Cc1sc2c(c1F)CC(N)CC2` (centres unmarked) [Compound 214, 3-fluoro-2-methyl-4,5,6,7-tetrahydrobenzothiophen-5-amine hydrochloride], the minimal effective dose [1] was > 3 mg/kg, the AD was “ND (^ <4%)” and the AG was “ND (^ <4%)”. For the same compound, the AN was “ND (^ <4%)”, the AP was “ND (^ <4%)” and the AX was “ND (^ <4%)”. For the same compound, the CE was “ND (^ <4%)”, the HL was “ND (^ <4%)” and the MS was “ND (^ <4%)”. The PS was “ND (^ <4%)”, the SH was “ND (^ <4%)” and the UK was “+ (≥4%)”.

`NC1COc2c(Cl)csc2C1` (centres unmarked) [Compound 215, 3-chloro-6,7-dihydro-5H-thieno[3,2-b]pyran-6-amine hydrochloride] was tested, and the minimal effective dose [1] was 3 mg/kg, the AD was “ND (^ <4%)” and the AG was “ND (^ <4%)”. The AN was “ND (^ <4%)”, the AP was “+ (≥4%)” and the AX was “+++ (≥49%)”. For the same compound, the CE was “ND (^ <4%)”, the HL was “ND (^ <4%)” and the MS was “ND (^ <4%)”. For the same compound, the PS was “ND (^ <4%)”, the SH was “ND (^ <4%)” and the UK was “ND (^ <4%)”.

With `NC1CCc2sc(Cl)cc2C1` (centres unmarked) [Compound 216, 2-chloro-4,5,6,7-tetrahydrobenzothiophen-5-amine hydrochloride] the minimal effective dose [1] was > 3 mg/kg, the AD was “ND (^ <4%)” and the AG was “ND (^ <4%)”. For the same compound, the AN was “ND (^ <4%)”, the AP was “ND (^ <4%)” and the AX was “++ (≥24%)”. The CE was “ND (^ <4%)”, the HL was “ND (^ <4%)” and the MS was “ND (^ <4%)”. For the same compound, the PS was “ND (^ <4%)”, the SH was “ND (^ <4%)” and the UK was “+ (≥4%)”.

With `NC1CCc2c(Cl)csc2C1` (centres unmarked) [Compound 217, 3-chloro-4,5,6,7-tetrahydrobenzothiophen-6-amine hydrochloride] the minimal effective dose [1] was < 3 mg/kg, the AD was “ND (^ <4%)” and the AG was “ND (^ <4%)”. For the same compound, the AN was “ND (^ <4%)”, the AP was “+ (≥4%)” and the AX was “++ (≥24%)”. The CE was “ND (^ <4%)”, the HL was “+ (≥4%)” and the MS was “ND (^ <4%)”. For the same compound, the PS was “++ (≥24%)”, the SH was “ND (^ <4%)” and the UK was “+ (≥4%)”.

For `NC1CCc2sc(Cl)c(Cl)c2C1` (centres unmarked) [Compound 219, 2,3-dichloro-4,5,6,7-tetrahydrobenzothiophen-5-amine hydrochloride], the minimal effective dose [1] was > 3 mg/kg, the AD was “ND (^ <4%)” and the AG was “ND (^ <4%)”. The AN was “ND (^ <4%)”, the AP was “ND (^ <4%)” and the AX was “ND (^ <4%)”. For the same compound, the CE was “ND (^ <4%)”, the HL was “ND (^ <4%)” and the MS was “ND (^ <4%)”. For the same compound, the PS was “ND (^ <4%)”, the SH was “ND (^ <4%)” and the UK was “++ (≥24%)”.

`CNC1CCc2sc(Cl)c(Cl)c2C1` (centres unmarked) [Compound 220, 2,3-dichloro-N-methyl-4,5,6,7-tetrahydrobenzothiophen-5-amine hydrochloride] was tested, and the minimal effective dose [1] was > 3 mg/kg, the AD was “ND (^ <4%)” and the AG was “ND (^ <4%)”. The AN was “ND (^ <4%)”, the AP was “ND (^ <4%)” and the AX was “ND (^ <4%)”. For the same compound, the CE was “ND (^ <4%)”, the HL was “ND (^ <4%)” and the MS was “ND (^ <4%)”. The PS was “ND (^ <4%)”, the SH was “ND (^ <4%)” and the UK was “++ (≥24%)”.

`NC1COc2c(C(F)(F)F)csc2C1` (centres unmarked) [Compound 221, 3-(trifluoromethyl)-6,7-dihydro-5H-thieno[3,2-b]pyran-6-amine hydrochloride] was tested, and the minimal effective dose [1] was 3 mg/kg, the AD was “ND (^ <4%)” and the AG was “ND (^ <4%)”. For the same compound, the AN was “+ (≥4%)”, the AP was “ND (^ <4%)” and the AX was “++ (≥24%)”. The CE was “ND (^ <4%)”, the HL was “+ (≥4%)” and the MS was “ND (^ <4%)”. For the same compound, the PS was “ND (^ <4%)”, the SH was “ND (^ <4%)” and the UK was “++ (≥24%)”.

With `CNC1COc2c(Cl)csc2C1` (centres unmarked) [Compound 222, 3-chloro-N-methyl-6,7-dihydro-5H-thieno[3,2-b]pyran-6-amine hydrochloride] the minimal effective dose [1] was < 3 mg/kg, the AD was “ND (^ <4%)” and the AG was “ND (^ <4%)”. For the same compound, the AN was “ND (^ <4%)”, the AP was “++++ (≥74%)” and the AX was “ND (^ <4%)”. The CE was “ND (^ <4%)”, the HL was “ND (^ <4%)” and the MS was “ND (^ <4%)”. The PS was “ND (^ <4%)”, the SH was “ND (^ <4%)” and the UK was “ND (^ <4%)”.

With `CNC1COc2c(F)csc2C1` (centres unmarked) [Compound 225, 3-fluoro-N-methyl-6,7-dihydro-5H-thieno[3,2-b]pyran-6-amine hydrochloride] the minimal effective dose [1] was < 3 mg/kg, the AD was “ND (^ <4%)” and the AG was “ND (^ <4%)”. The AN was “ND (^ <4%)”, the AP was “++++ (≥74%)” and the AX was “ND (^ <4%)”. For the same compound, the CE was “ND (^ <4%)”, the HL was “ND (^ <4%)” and the MS was “ND (^ <4%)”. The PS was “ND (^ <4%)”, the SH was “ND (^ <4%)” and the UK was “ND (^ <4%)”.

For `Cc1csc2c1OCC(N)C2` (centres unmarked) [Compound 228, 3-methyl-6,7-dihydro-5H-thieno[3,2-b]pyran-6-amine hydrochloride], the minimal effective dose [1] was 1 mg/kg, the AD was “ND (^ <4%)” and the AG was “ND (^ <4%)”. For the same compound, the AN was “ND (^ <4%)”, the AP was “ND (^ <4%)” and the AX was “ND (^ <4%)”. For the same compound, the CE was “ND (^ <4%)”, the HL was “ND (^ <4%)” and the MS was “ND (^ <4%)”. For the same compound, the PS was “ND (^ <4%)”, the SH was “ND (^ <4%)” and the UK was “ND (^ <4%)”.

In the case of `NC1COc2c(C3CC3)csc2C1` (centres unmarked) [Compound 229, 3-cyclopropyl-6,7-dihydro-5H-thieno[3,2-b]pyran-6-amine hydrochloride], the minimal effective dose [1] was 3 mg/kg, the AG was “ND (^ <4%)” and the AN was “ND (^ <4%)”. For the same compound, the AP was “ND (^ <4%)”, the AX was “++++ (≥74%)” and the CE was “ND (^ <4%)”. For the same compound, the HL was “+ (≥4%)”, the MS was “ND (^ <4%)” and the PS was “ND (^ <4%)”. For the same compound, the SH was “ND (^ <4%)” and the UK was “ND (^ <4%)”.

For `CNC1COc2sccc2C1` (centres unmarked) [Compound 234, N-methyl-3,4-dihydro-2H-thieno[2,3-b]pyran-3-amine hydrochloride], the minimal effective dose [1] was 1 mg/kg, the AD was “ND (^ <4%)” and the AG was “ND (^ <4%)”. For the same compound, the AN was “ND (^ <4%)”, the AP was “++++ (≥74%)” and the AX was “+ (≥4%)”. For the same compound, the CE was “ND (^ <4%)”, the HL was “ND (^ <4%)” and the MS was “ND (^ <4%)”. The PS was “ND (^ <4%)”, the SH was “ND (^ <4%)” and the UK was “ND (^ <4%)”.

`CNC1COc2c(C3CC3)csc2C1` (centres unmarked) [Compound 235, 3-cyclopropyl-N-methyl-6,7-dihydro-5H-thieno[3,2-b]pyran-6-amine hydrochloride] was tested, and the minimal effective dose [1] was 3 mg/kg, the AD was “++++ (≥74%)” and the AG was “ND (^ <4%)”. For the same compound, the AN was “ND (^ <4%)”, the AP was “ND (^ <4%)” and the AX was “ND (^ <4%)”. The CE was “ND (^ <4%)”, the HL was “ND (^ <4%)” and the MS was “ND (^ <4%)”. The PS was “ND (^ <4%)”, the SH was “ND (^ <4%)” and the UK was “ND (^ <4%)”.

With `CNC1(C)COc2c(C)csc2C1.Cl` (centres unmarked) [Compound 239, N, 3,6-trimethyl-6,7-dihydro-5H-thieno[3,2-b]pyran-6-amine hydroachloride] the AG was “ND (^ <4%)”, the AN was “ND (^ <4%)” and the AP was “ND (^ <4%)”. For the same compound, the AX was “ND (^ <4%)”, the CE was “ND (^ <4%)” and the HL was “ND (^ <4%)”. The MS was “ND (^ <4%)”, the PS was “ND (^ <4%)” and the SH was “ND (^ <4%)”. The AD (3 mg/kg) was “ND (^ <4%)”, the UK (3 mg/kg) was “++ (≥24%)” and the MED [1] was >3 mpk.
